In series [1] the test system is HIV strain IIIB (wild type). Briefly: microbe, parasite or virus in culture. As to conditions: for EC50: Human immunodeficiency virus 1, IIIB, 72 h, read-out: IIIB pEC50 (−log EC50) (converted); for IIIB pEC50 (−log EC50): wild type HIV strain IIIB, MT4 LTR-EGFP cells, GFP fluorescence, three days after infection. The protocol: Compounds of the invention were tested for their potency against wild type virus and clinically isolated HIV strains harboring one or more mutations associated with resistance to reverse transcriptase inhibitors. Antiviral activity was evaluated using a cellular assay performed according to the following procedure.
The human T-cell line MT4 was engineered with Green Fluorescent Protein (GFP) and a HIV-specific promoter, HIV-1 long terminal repeat (LTR). This cell line, designated MT4 LTR-EGFP, can be used for the in vitro evaluation of anti-HIV activity of investigational compounds. In HIV-1 infected cells, the Tat protein is produced, which upregulates the LTR promotor and eventually leads to stimulation of the GFP reporter production, allowing to measure ongoing HIV-infection fluorometrically.
Analogously, MT4 cells were engineered with GFP and the constitutional cytomegalovirus (CMV) promotor. […] Cytotoxic investigational compounds reduce GFP levels of mock-infected MT4 CMV-EGFP cells.
The ratio of CC50 to EC50 is defined as the selectivity index (SI) and is an indication of the selectivity of the anti-HIV activity of the inhibitor. The ultimate monitoring of HIV-1 infection and cytotoxicity was done using a scanning microscope. Image analysis allows very sensitive detection of viral infection. Measurements were done before cell necrosis, which usually takes place about five days after infection, in particular measurements were performed three days after infection.
The columns IIIB, L100I, etc. in the table list the pEC50 (−log EC50) values against various strains IIIB, L100I, etc.; pSI lists the −log SI values.
Strain IIIB is wild type HIV strain.

The next series relates to HIV strain K103N + Y181C. Briefly: microbe, parasite or virus in culture. Format: cell-based, HIV-1. The following applies: for EC50: Human immunodeficiency virus 1, 72 h, read-out: K103N + Y181C pEC50 (−log EC50) (converted); for K103N + Y181C pEC50 (−log EC50): HIV strain K103N + Y181C, MT4 LTR-EGFP cells, three days after infection. The text has this: (§1) Image analysis allows very sensitive detection of viral infection.

A further series concerns HIV strain L100I + K103N. Briefly: microbe, parasite or virus in culture. The following applies: for EC50: Human immunodeficiency virus 1, 72 h, read-out: L100I + K103N pEC50 (−log EC50) (converted); for L100I + K103N pEC50 (−log EC50): HIV strain L100I + K103N, MT4 LTR-EGFP cells, three days after infection. Format: cell-based, HIV-1.
Source text: as §1

The test system of another series is HIV strain Y181C. Briefly: microbe, parasite or virus in culture. Format: cell-based, HIV-1. The following applies: for EC50: Human immunodeficiency virus 1, 72 h, read-out: Y181C pEC50 (−log EC50) (converted); for Y181C pEC50 (−log EC50): HIV strain Y181C, MT4 LTR-EGFP cells, three days after infection.
Source text: as §1

In series [2] the test system is HIV strain MDR (L100I, K103N, Y181C, E138G, V179I, L2214F, V278V/I and A327A/V in HIV reverse transcriptase). Briefly: microbe, parasite or virus in culture. Format: cell-based, HIV-1. As to conditions: for EC50: Human immunodeficiency virus 1, 72 h, read-out: MDR pEC50 (−log EC50) (converted); for MDR pEC50 (−log EC50): MDR HIV strain (multiple RT mutations), MT4 LTR-EGFP cells, three days after infection.
Source text: as §1
“MDR” refers to a strain that contains mutations L100I, K103N, Y181C, E138G, V179I, L2214F, V278V/I and A327A/V in HIV reverse transcriptase.

The structures appear in SMILES notation.

As a reminder, the EC50 is the concentration at which the effect is half-maximal. The term melting point denotes the temperature of the solid-liquid transition.

Take `Cc1cc(/C=C/C#N)cc(C)c1Nc1cc(-c2cccnc2)nc(Nc2ccc(C#N)cc2)n1` [Compound 1]: the melting point is 180 °C. Moreover, in series [1], the EC50 is 3.47 nM. In addition, the concentration for a half-maximal effect (EC50) in the series on HIV strain K103N + Y181C was 19.5 nM. For the same compound, the EC50 in the series on HIV strain L100I + K103N was 115 nM. The EC50 with HIV strain Y181C was 11 nM. Also, the EC50 in series [2] was 1780 nM.

With `COc1ccccc1C(O)c1cc(Nc2c(C)cc(/C=C/C#N)cc2C)nc(Nc2ccc(C#N)cc2)n1` (stereo not drawn) [Compound 3], the EC50 in series [1] was 7.24 nM; in the series on HIV strain K103N + Y181C, 263 nM; in the series with HIV strain L100I + K103N, 95.5 nM; in the series with HIV strain Y181C it was 105 nM; in series [2], 2950 nM.

As for `COCCNC(=O)c1cc(Nc2c(C)cc(/C=C/C#N)cc2C)nc(Nc2ccc(C#N)cc2)n1` [Compound 4], the melting point came out at 130 °C. The EC50 in series [1] is 3.09 nM. Moreover, in the series on HIV strain K103N + Y181C, the 50% effective concentration (EC50) was 10.2 nM. Moreover, the EC50 with HIV strain Y181C was 13.8 nM. For the same compound, the EC50 in series [2] was 2820 nM.

`Cc1cc(/C=C/C#N)cc(C)c1Nc1cc(C(=O)NCCF)nc(Nc2ccc(C#N)cc2)n1` [Compound 5] showed a melting point of over 250 °C. The EC50 in series [1] is 1.58 nM. Moreover, in the series with HIV strain K103N + Y181C, the EC50 is 4.37 nM. Further, the EC50 in the series on HIV strain L100I + K103N was 25.1 nM. Moreover, the EC50 with HIV strain Y181C was 6.31 nM. For the same compound, the EC50 in series [2] is 1410 nM.

In turn, `Cc1cc(/C=C/C#N)cc(C)c1Nc1cc(C(=O)NCCC#N)nc(Nc2ccc(C#N)cc2)n1` [Compound 6] registered a melting point of 250 °C. Moreover, the EC50 in series [1] is 8.91 nM. Besides, the EC50 in the series with HIV strain L100I + K103N was 40.7 nM. Besides, in the series on HIV strain Y181C, the EC50 was 20 nM. In series [2], the EC50 was 1860 nM.

The compound `Cc1cc(/C=C/C#N)cc(C)c1Nc1cc(C(=O)NCc2ccncc2)nc(Nc2ccc(C#N)cc2)n1` [Compound 7] showed a melting point of 202 °C. Besides, the EC50 in series [1] is 4.17 nM. Besides, the EC50 in the series with HIV strain K103N + Y181C was 17.8 nM. For the same compound, the EC50 with HIV strain Y181C is 16.6 nM. Besides, the EC50 in series [2] is 2340 nM.

Consider `Cc1cc(/C=C/C#N)cc(C)c1Nc1cc(C(=O)NCc2ccco2)nc(Nc2ccc(C#N)cc2)n1` [Compound 8], for which the melting point came out at 256 °C. The half-maximal effective concentration (EC50) in series [1] was 5.5 nM. In the series with HIV strain K103N + Y181C, the EC50 is 31.6 nM. The EC50 with HIV strain L100I + K103N is 85.1 nM. The EC50 in the series with HIV strain Y181C was 18.6 nM. The EC50 in series [2] is 8130 nM.

Take `Cc1cc(/C=C/C#N)cc(C)c1Nc1cc(C(=O)c2nccs2)nc(Nc2ccc(C#N)cc2)n1` [Compound 10]: the EC50 in series [1] is 2.82 nM; in the series with HIV strain K103N + Y181C, 10.7 nM; in the series with HIV strain L100I + K103N, 4.79 nM; in the series on HIV strain Y181C it was 3.47 nM; in series [2], 562 nM.

As for `Cc1cc(/C=C/C#N)cc(C)c1Nc1cc(C(O)c2nccs2)nc(Nc2ccc(C#N)cc2)n1` (stereo not drawn) [Compound 11], the melting point came out at 147 °C. For the same compound, the EC50 in series [1] was 1.82 nM. Besides, in the series on HIV strain K103N + Y181C, the EC50 was 19.1 nM. In addition, the EC50 in the series on HIV strain L100I + K103N is 6.31 nM. In addition, the EC50 with HIV strain Y181C is 4.07 nM. Moreover, the EC50 in series [2] is 692 nM.

For the compound `Cc1cc(/C=C/C#N)cc(C)c1Nc1cc(CN2CCN(C)CC2)nc(Nc2ccc(C#N)cc2)n1` [Compound 13], the “IIIB pEC50 (−log EC50)” value in series [1] is on record as 8.54. For the same compound, the “K103N + Y181C pEC50 (−log EC50)” value in the series with HIV strain K103N + Y181C is given as 7.68. Further, in the series with HIV strain L100I + K103N, the “L100I + K103N pEC50 (−log EC50)” value was found to be 7.20. The “Y181C pEC50 (−log EC50)” value with HIV strain Y181C was 7.79. For the same compound, the “MDR pEC50 (−log EC50)” value in series [2] is listed as 5.59.

With `Cc1cc(C=CC#N)cc(C)c1Nc1cc(CN(C)CC#N)nc(Nc2ccc(C#N)cc2)n1` [Compound 21], the “IIIB pEC50 (−log EC50)” value in series [1] is listed as 8.47. Further, the “K103N + Y181C pEC50 (−log EC50)” value in the series with HIV strain K103N + Y181C turned out to be 7.71. Besides, the “L100I + K103N pEC50 (−log EC50)” value with HIV strain L100I + K103N is listed as 7.16. In addition, in the series on HIV strain Y181C, the “Y181C pEC50 (−log EC50)” value is recorded as 7.73. Besides, the “MDR pEC50 (−log EC50)” value in series [2] was 5.70.

Regarding `CCOP(=O)(OCC)OCc1cc(Nc2c(C)cc(/C=C/C#N)cc2C)nc(Nc2ccc(C#N)cc2)n1` [Compound 32], the “IIIB pEC50 (−log EC50)” value in series [1] was 8.50. Besides, the “K103N + Y181C pEC50 (−log EC50)” value with HIV strain K103N + Y181C came out at 7.50. Moreover, in the series with HIV strain L100I + K103N, the “L100I + K103N pEC50 (−log EC50)” value amounted to 7.20. Further, in the series on HIV strain Y181C, the “Y181C pEC50 (−log EC50)” value was found to be 7.60. The “MDR pEC50 (−log EC50)” value in series [2] amounted to 6.40.

Consider `Cc1cc(/C=C/C#N)cc(C)c1Nc1cc(COC(N)=O)nc(Nc2ccc(C#N)cc2)n1` [Compound 33], for which, in series [1], the “IIIB pEC50 (−log EC50)” value is reported as 8.40. Also, in the series with HIV strain K103N + Y181C, the “K103N + Y181C pEC50 (−log EC50)” value is 8.00. Besides, the “L100I + K103N pEC50 (−log EC50)” value in the series with HIV strain L100I + K103N is given as 7.10. The “Y181C pEC50 (−log EC50)” value in the series on HIV strain Y181C was 7.70. The “MDR pEC50 (−log EC50)” value in series [2] is on record as 6.20.

In turn, `Cc1cc(/C=C/C#N)cc(C)c1Nc1cc(/C=N/O)nc(Nc2ccc(C#N)cc2)n1` [Compound 34] returned a melting point of 220 °C. In series [1], the EC50 is 3.98 nM. Besides, in the series on HIV strain K103N + Y181C, the EC50 was 3.98 nM. In the series on HIV strain L100I + K103N, the EC50 is 12.6 nM. Besides, the concentration giving a half-maximal response (EC50) in the series on HIV strain Y181C was 10 nM. In series [2], the EC50 was 501 nM.

The record behind these values is patent publication US9006243B2, “HIV inhibiting 6-substituted pyrimidines” (Janssen R&D Ireland, priority 2006, dated 2015).
